In patent US11304897B2, “Pharmaceutical formulation containing umeclidinium bromide and vilanterol trifenatate” (ANOVENT PHARMACEUTICAL (U.S.), LLC, priority 2020, dated 2022):
Converted amounts (≈) assume the structure as drawn.

Assay: Solubility in different cosolvents
Assay type: physicochemical
Excerpt: Solubility in Different Cosolvents: 5% tween-80: Dissolve 5 g tween-80 in 100 g purified water. 5% Sulfobutylether β-cyclodextrin: Dissolve 5 g Sulfobutylether β-cyclodextrin in 100 g purified water. 20% Sulfobutylether β-cyclodextrin: Dissolve 20 g Sulfobutylether β-cyclodextrin in 100 g purified water.

[1] = 0.2 mg/ml tween-80, aqueous with cosolvent or surfactant or cyclodextrin
[2] = 5% sulfobutylether β-cyclodextrin in purified water, aqueous with cosolvent or surfactant or cyclodextrin
[3] = 5% tween-80 in purified water, aqueous with cosolvent or surfactant or cyclodextrin, 5% tween -80
[4] = 20% sulfobutylether β-cyclodextrin in purified water, aqueous with cosolvent or surfactant or cyclodextrin

SMILES | solubility [1] [µg/mL] | solubility [2] [µg/mL] | solubility [3] [µg/mL] | solubility [4] [µg/mL] | solubility (in words) (purified water) | solubility (purified water, water) [µg/mL]
OC(c1ccccc1)(c1ccccc1)C12CC[N+](CCOCc3ccccc3)(CC1)CC2.[Br-] [UB, 1-[2-(benzyloxy)ethyl]-4-(hydroxydiphenylmethyl)-1-azoniabicyclo[2.2.2]octane bromide] | 582 | 3560 | 3540 | 3450 | almost insoluble | 618
OCc1cc([C@@H](O)CNCCCCCCOCCOCc2c(Cl)cccc2Cl)ccc1O [VT, triphenylacetic acid-4-{(1R)-2-[(6-{2-[(2,6-dicholorobenzyl)oxy]ethoxy}hexyl)amino]-1-hydroxyethyl}-2-(hydroxymethyl)phenol (1:1)] | 62.6 (≈ 129 µM) | 370 (≈ 760 µM) | 1370 (≈ 2820 µM) | 1400 (≈ 2880 µM) | almost insoluble | 53.7 (≈ 110 µM)
